Assay results from patent US9777045B2, “Immunogenic compositions and methods” (Longhorn Vaccines and Diagnostics, LLC, priority 2007, dated 2017).
Several values for one entry are separate records, joined by “and”; a condition that tells them apart may be missing. Identical values can stand only once. Like-named read-outs stand apart in the source and are kept apart here.

B1: GNLFIAPGNLFIAPHYEECSCYHYEECSCYQYIKANSKFIGITEHYEECSCYTPIRNETPIRNE (peptide)
chain: GNLFIAPGNLFIAPHYEECSCYHYEECSCYQYIKANSKFIGITEHYEECSCYTPIRNETPIRNE

Tests used:
[1] = tested on: live H3N2 virus; type: in vivo, cotton rats (Sigmodon hispidus); details: cotton rats; 100 μg IM on day 0 and day 28, in CFA or in PBS; sera day 0, 28, 42
[2] = tested on: IFN-γ induction in splenocytes; type: cell-based; details: mice immunized with peptide-BSA conjugates, 72 h in vitro treatment
[3] = tested on: peptide corresponding to the peptide-BSA conjugate used for injection; test: ELISA for anti-peptide antibodies (individual mouse sera 1:100); type: in vivo, mice; details: for Average Absorbance Values of sera for tested peptides, Day 14 / Average Absorbance Values of sera for tested peptides, Day 29 / Average Absorbance Values of sera for tested peptides, Day 42 / Average Absorbance Values of sera for tested peptides, Pre: group average; for Average Absorbance Values of sera for tested peptides, Day 14 / Average Absorbance Values of sera for tested peptides, Day 29 / Average Absorbance Values of sera for tested peptides, Day 42 / Average Absorbance Values of sera for tested peptides, Pre / Individual absorbancy values of sera for tested peptides, Day 14 / Individual absorbancy values of sera for tested peptides, Day 29 / Individual absorbancy values of sera for tested peptides, Day 42: mice; for Average Absorbance Values of sera for tested peptides, Pre / Individual absorbancy values of sera for tested peptides, Pre: pre-bleed; for Individual absorbancy values of sera for tested peptides, Pre: mice injected with peptide-BSA conjugate, absorbance 450 nm; for Individual absorbancy values of sera for tested peptides, Pre / Individual absorbancy values of sera for tested peptides, Day 14 / Individual absorbancy values of sera for tested peptides, Day 29 / Individual absorbancy values of sera for tested peptides, Day 42: sera 1:100
Procedure: Individual sera were tested at a final dilution of 1:100 (in PBS-T) on Nunc Maxisorp® plates coated with the peptide corresponding to the peptide-BSA conjugate used for injection, at a concentration of 1 μg/ml in PBS (100 μl/well). One hundred microliters of diluted sera were reacted on the coated plate for 30 to 60 min at room temperature, and unbound material was removed by washing three times with PBS-T. Anti-peptide antibodies were detected with peroxidase-labeled goat anti-mouse IgG (γ-specific), diluted 1:10000 in PBS-T (100 μl/well; Jackson ImmunoResearch Laboratories, Inc., West Grove, Pa., USA). Following 30-min incubation, the wells were washed five times with PBS-T to removed unbound material and 100 μl of substrate (TMB; Kirkegaard & Perry Laboratories, Inc., Gaithersburg, Md., USA) was added to each well. The reaction was allowed to proceed for 15 min in the dark and stopped by addition of 100 μl of TMB Stop Solution per well (Kirkegaard & Perry). Absorbance was determined at 450 nm.

[4] = tested on: live Wuhan (Influenza A/Wuhan/359/95, H3N2); test: ELISA for anti-Wuhan antibodies (mouse sera 1:100); type: in vivo, mice; details: for Absorbance values for individual sera tested on influenzavirus strain Wuhan, Pre: pre-bleed; for Anti-Wuhan Absorbance Day 42 (group average) / Anti-Wuhan Absorbance Pre-Bleed (group average): averaged results
[5] = tested on: Influenza H1N1, H3N2, and H5N1; details: in vivo
[6] = mice, 5 μg per injection, sera 1:100
[7] = mice, 20 μg per injection, sera 1:100
[8] = sera 1:100, dose per inject 5 μg
[9] = sera 1:100, dose per inject 20 μg
[10] = sera 1:100, dose per injection 5 μg
[11] = sera 1:100, dose per injection 20 μg

| Molecule | Average Absorbance Values of sera for tested peptides, Day 14 ([3]; 5 μg per injection) | Average Absorbance Values of sera for tested peptides, Day 29 ([3]; 5 μg per injection) | Average Absorbance Values of sera for tested peptides, Day 42 ([3]; 5 μg per injection) | Average Absorbance Values of sera for tested peptides, Pre ([3]; 5 μg per injection) | Average Absorbance Values of sera for tested peptides, Day 14 ([3]; 20 μg per injection) | Average Absorbance Values of sera for tested peptides, Day 29 ([3]; 20 μg per injection) | Average Absorbance Values of sera for tested peptides, Day 42 ([3]; 20 μg per injection) | Average Absorbance Values of sera for tested peptides, Pre ([3]; 20 μg per injection) | Individual absorbancy values of sera for tested peptides, Pre ([3]; 5 μg per injection) | Individual absorbancy values of sera for tested peptides, Pre ([3]; 20 μg per injection) | Individual absorbancy values of sera for tested peptides, Day 14 ([3]; 5 μg per injection) | Individual absorbancy values of sera for tested peptides, Day 29 ([3]; 5 μg per injection) | Individual absorbancy values of sera for tested peptides, Day 42 ([3]; 5 μg per injection) | Individual absorbancy values of sera for tested peptides, Day 14 ([3]; 20 μg per injection) | Individual absorbancy values of sera for tested peptides, Day 29 ([3]; 20 μg per injection) | Individual absorbancy values of sera for tested peptides, Day 42 ([3]; 20 μg per injection) | Absorbance values for individual sera tested on influenzavirus strain Wuhan, Pre [4, 6] | Absorbance values for individual sera tested on influenzavirus strain Wuhan, Pre [4, 7] | Anti-Wuhan Absorbance Day 42 (individual mice) [4, 8] | Anti-Wuhan Absorbance Pre-Bleed (individual mice) [4, 8] | further results |
| --- | --- | --- | --- | --- | --- | --- | --- | --- | --- | --- | --- | --- | --- | --- | --- | --- | --- | --- | --- | --- | --- |
| MSLLTEVETPIRNEWGCRCNDSSD [Peptide M2e, reference compound] | – | – | – | – | – | – | – | – | – | – | – | – | – | – | – | – | – | – | – | – | IgG titers to live H3N2 virus (ELISA) [1]: no particular advantage over small epitopic peptide fragments |
| GNLFIAP [Peptide 5910] | 0.113 | 0.140 | 0.318 | 0.154 | 0.102 | 0.202 | 0.237 | 0.083 | 0.100 and 0.110 and 0.097 and 0.308 | 0.081 and 0.083 (2×) and 0.087 | 0.089 and 0.090 and 0.086 and 0.186 | 0.099 and 0.226 and 0.085 and 0.149 | 0.123 and 0.306 and 0.680 and 0.162 | 0.104 and 0.081 and 0.078 and 0.144 | 0.296 and 0.077 and 0.133 and 0.302 | 0.279 and 0.164 and 0.175 and 0.333 | 0.076 and 0.092 and 0.068 and 0.109 | 0.069 and 0.070 and 0.071 and 0.092 | 0.449 and 0.341 and 0.288 and 0.088 | 0.076 and 0.092 and 0.068 and 0.109 | IFN-γ response of spleen cell supernatants (in words) [2]: strongest IFN-γ response; IFN-γ response of spleen cell supernatants (in words) ([2]; listed as GNLFIAP): good IFN-γ response; antibody responses that bound to native influenza (whole H3 virus), day 42 vs before ([4]; mice, conjugates at 5-μg and 20-μg doses): good antibody responses; Anti-Wuhan Absorbance Day 42 (individual mice) [4, 9]: 0.546 and 0.096 and 0.271 and 0.385; Anti-Wuhan Absorbance Pre-Bleed (individual mice) [4, 9]: 0.069 and 0.070 and 0.071 and 0.092; Anti-Wuhan Absorbance Day 42 (group average) [4, 10]: 0.291; Anti-Wuhan Absorbance Pre-Bleed (group average) [4, 10]: 0.086; Anti-Wuhan Absorbance Day 42 (group average) [4, 11]: 0.324; Anti-Wuhan Absorbance Pre-Bleed (group average) [4, 11]: 0.075 |
| DWSGYSGSFVQHPELTGL [Peptide 5912] | 0.162 | 0.325 | 0.693 | 0.130 | 0.130 | 0.123 | 0.155 | 0.100 | 0.090 and 0.094 and 0.107 and 0.156 | 0.100 and 0.098 and 0.090 and 0.123 | 0.287 and 0.109 and 0.230 and 0.147 | 0.175 and 0.137 and 0.700 and 0.138 | 0.154 (2×) and 0.167 and 1.758 | 0.091 and 0.082 and 0.103 and 0.088 | 0.098 and 0.146 and 0.099 and 0.096 | 0.155 and 0.189 and 0.168 and 0.111 | 0.063 and 0.060 and 0.062 and 0.083 | 0.077 and 0.084 and 0.057 and 0.086 | 0.086 and 0.100 and 0.527 and 0.090 | 0.063 and 0.060 and 0.062 and 0.083 | Anti-Wuhan Absorbance Day 42 (individual mice) [4, 9]: 0.132 and 0.431 and 0.093 and 0.068; Anti-Wuhan Absorbance Pre-Bleed (individual mice) [4, 9]: 0.077 and 0.084 and 0.057 and 0.086; Anti-Wuhan Absorbance Day 42 (group average) [4, 10]: 0.201; Anti-Wuhan Absorbance Pre-Bleed (group average) [4, 10]: 0.067; Anti-Wuhan Absorbance Day 42 (group average) [4, 11]: 0.181; Anti-Wuhan Absorbance Pre-Bleed (group average) [4, 11]: 0.076 |
| HYEECSCYDWSGYSGSFVQHPELTGLHYEECSCYQYIKANSKFIGITE [Peptide 5908] | – | – | – | – | – | – | – | – | – | – | – | – | – | – | – | – | – | – | – | – | immune response against Influenza H1N1, H3N2, and H5N1 [5]: raised an immune response |
| KSCINRCFYVELIRGR [Peptide 5914] | 0.128 | 0.181 | 0.284 | 0.126 | 0.174 | 0.171 | 0.411 | 0.146 | 0.110 and 0.133 and 0.136 and 0.126 | 0.165 (2×) and 0.133 and 0.123 | 0.117 and 0.123 and 0.156 and 0.118 | 0.248 and 0.136 and 0.219 and 0.121 | 0.388 and 0.264 and 0.357 and 0.127 | 0.213 and 0.150 and 0.153 and 0.180 | 0.175 and 0.214 and 0.141 and 0.156 | 0.284 and 0.480 and 0.646 and 0.234 | 0.062 and 0.059 and 0.090 and 0.083 | 0.099 and 0.132 and 0.068 and 0.080 | 0.176 and 0.329 and 0.239 and 0.096 | 0.062 and 0.059 and 0.090 and 0.083 | Absorbance values for individual sera tested on influenzavirus strain Wuhan, Day 42 ([4]; mice, 5 μg per injection, day 42, sera 1:100): 0.172; Anti-Wuhan Absorbance Day 42 (individual mice) [4, 9]: 0.156 and 0.408 and 0.296 and 0.182; Anti-Wuhan Absorbance Pre-Bleed (individual mice) [4, 9]: 0.099 and 0.132 and 0.068 and 0.080; Anti-Wuhan Absorbance Day 42 (group average) [4, 10]: 0.210; Anti-Wuhan Absorbance Pre-Bleed (group average) [4, 10]: 0.073; Anti-Wuhan Absorbance Day 42 (group average) [4, 11]: 0.260; Anti-Wuhan Absorbance Pre-Bleed (group average) [4, 11]: 0.094 |
| B1 | – | – | – | – | – | – | – | – | – | – | – | – | – | – | – | – | – | – | – | – | immune response against Influenza H1N1, H3N2, and H5N1 [5]: raised an immune response |
